Assay results from patent US20260042755A1, “GPR6 INVERSE AGONISTS” (MapLight Therapeutics, Inc., priority 2022, published 2026).

Tests used:
[1] = molecular target: T1, GPR6 (Homo sapiens, UniProt P46095); experiment: GPR6 antagonist functional cAMP assay (LANCE Ultra cAMP TR-FRET, CHO cells stably expressing GPR6); assay type: cell-based
T1 construct: expressed in transfected cells; host or cells: CHO cells
Outline: (§1)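 Compounds, at 0.1% final DMSO, acted on the cells for 45 minutes at 37 °C in the presence of the phosphodiesterase inhibitor Ro 20-1724 (150 μM). After lysis and detection, plates were shaken 1 h at room temperature and emission at 665 nm was recorded. Normalized data gave IC50 values.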

[2] = molecular target: T2, GPR3 (Homo sapiens, UniProt P46089); experiment: GPR3 antagonist functional cAMP assay (LANCE Ultra cAMP TR-FRET, CHO cells stably expressing GPR3); assay type: cell-based
T2 construct: expressed in transfected cells; host or cells: CHO cells
Outline: as §1

[3] = CHO cells stably expressing GPR6, cAMP assay (Example 24)
[4] = CHO cells stably expressing GPR3, cAMP assay (Example 24)
[5] = CHO cells stably expressing GPR6, cAMP assay
[6] = CHO cells stably expressing GPR3, cAMP assay
[7] = procedure as described in Example 24

T1 sequence (P46095 whole entry): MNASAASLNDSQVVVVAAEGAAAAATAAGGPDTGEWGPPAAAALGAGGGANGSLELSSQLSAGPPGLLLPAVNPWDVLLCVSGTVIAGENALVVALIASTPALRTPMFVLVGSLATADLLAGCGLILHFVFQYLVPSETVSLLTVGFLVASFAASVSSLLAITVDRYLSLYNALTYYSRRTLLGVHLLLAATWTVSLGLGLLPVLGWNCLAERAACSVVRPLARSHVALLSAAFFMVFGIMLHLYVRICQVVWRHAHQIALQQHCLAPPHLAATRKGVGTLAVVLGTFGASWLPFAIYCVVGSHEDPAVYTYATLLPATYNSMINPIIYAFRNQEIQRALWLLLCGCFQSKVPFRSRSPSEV
T2 sequence (P46089 whole entry, species assumed): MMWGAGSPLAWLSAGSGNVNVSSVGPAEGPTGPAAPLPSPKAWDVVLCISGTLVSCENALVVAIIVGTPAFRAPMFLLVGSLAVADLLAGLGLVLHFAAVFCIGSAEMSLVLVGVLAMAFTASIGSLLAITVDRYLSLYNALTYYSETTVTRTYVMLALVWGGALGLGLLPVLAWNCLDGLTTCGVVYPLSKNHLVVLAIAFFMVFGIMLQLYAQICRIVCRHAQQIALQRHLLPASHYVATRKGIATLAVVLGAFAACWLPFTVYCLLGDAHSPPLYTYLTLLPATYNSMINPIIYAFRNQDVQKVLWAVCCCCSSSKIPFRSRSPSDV

CNC(=O)CN1CCc2nc(N3CCC(Oc4ccc(F)cc4F)CC3)c(-c3cn[nH]c3)nc2C1 [Compound 145, 2-{2-[4-(2,4-difluorophenoxy)piperidin-1-yl]-3-(1H-pyrazol-4-yl)-5H,6H,7H,8H-pyrido[3,4-b]pyrazin-6-yl}-N-methylacetamide]
IC50 [1, 3]: 1 to 30 µM | IC50 [2, 4]: 1 to 30 µM

CC(C)(O)[C@@H](O)c1cc2nc(-c3cnn(C(F)F)c3)c(N3CCN(Cc4ccccc4F)CC3)nc2cn1 (single isomer, unassigned) [Compound 686]
IC50 ([1]; procedure of Example 24): < 0.1 µM | IC50 ([2]; procedure of Example 24): 0.1 to 1 µM

Cn1cc(-c2nc3cnc(Cl)cc3nc2N2CCC(Oc3ccc(F)cc3F)CC2)cn1 [Compound 289, 7-chloro-2-(4-(2,4-difluorophenoxy)piperidin-1-yl)-3-(1-methyl-1H-pyrazol-4-yl)pyrido[3,4-b]pyrazine]
IC50 ([1]; procedure of Example 24): 1 to 30 µM | IC50 ([2]; procedure of Example 24): 1 to 30 µM

Cn1cc(-c2nc3cc(C(O)C(C)(C)O)ncc3nc2N2CCC(Oc3ccc(F)cc3F)CC2)cn1 (single isomer, unassigned) [Compound 562]
IC50 [1, 5]: < 0.1 µM | IC50 [2, 6]: 0.1 to 1 µM

CC(=O)N1CCc2nc(N3CCC(Oc4ccc(F)cc4F)CC3)c(-c3cccc(C(F)(F)F)n3)nc2C1 [Compound 50, 1-{2-[4-(2,4-difluorophenoxy)piperidin-1-yl]-3-[6-(trifluoromethyl)pyridin-2-yl]-5H,6H,7H,8H-pyrido[3,4-b]pyrazin-6-yl}ethan-1-one]
IC50 [1, 7]: 0.1 to 1 µM | IC50 [2, 7]: 1 to 30 µM

CC(=O)N1CCc2nc(N3CCN(Cc4c(F)ccc(F)c4F)CC3)c(-c3cnn(C)c3)nc2C1 [Compound 354, 1-[3-(1-methyl-1H-pyrazol-4-yl)-2-{4-[(2,3,6-trifluorophenyl)methyl]piperazin-1-yl}-5H,6H,7H,8H-pyrido[3,4-b]pyrazin-6-yl]ethan-1-one]
IC50 ([1]; procedure of Example 24): 1 to 30 µM | IC50 ([2]; procedure of Example 24): 1 to 30 µM

CC(=O)N1CCc2nc(N3CCC(Oc4ccc(F)cc4F)CC3)c(-c3ccn[nH]3)nc2C1 [Compound 11, 1-{2-[4-(2,4-difluorophenoxy)piperidin-1-yl]-3-(1H-pyrazol-5-yl)-5H,6H,7H,8H-pyrido[3,4-b]pyrazin-6-yl}ethan-1-one]
IC50 [1, 7]: 1 to 30 µM | IC50 [2, 7]: 1 to 30 µM

COc1cncc(-c2nc3cnccc3nc2N2CC3(CC(Oc4ccc(F)cc4F)C3)C2)n1 [Compound 92, 2-(6-(2,4-difluorophenoxy)-2-azaspiro[3.3]heptan-2-yl)-3-(6-methoxypyrazin-2-yl)pyrido[3,4-b]pyrazine]
IC50 [1, 3]: 1 to 30 µM | IC50 [2, 4]: ≥ 30 µM

CC(=O)N1CCc2nc(N3CCC(Oc4ccc(F)cc4F)CC3)c(-c3cn[nH]c3)nc2C1 [Compound 32, 1-(2-(4-(2,4-difluorophenoxy)piperidin-1-yl)-3-(1H-pyrazol-4-yl)-7,8-dihydropyrido[3,4-b]pyrazin-6(5H)-yl)ethan-1-one]
IC50 [1, 7]: 0.1 to 1 µM | IC50 [2, 7]: 1 to 30 µM

CC(=O)N1CCc2nc(N3CCC(Oc4ccc(F)cc4F)CC3)c(/C=C3/CCOC3)nc2C1 [Compound 494, 1-{2-[4-(2,4-difluorophenoxy)piperidin-1-yl]-3-{[(3Z)-oxolan-3-ylidene]methyl}-5H,6H,7H,8H-pyrido[3,4-b]pyrazin-6-yl}ethan-1-one]
IC50 [1, 5]: 0.1 to 1 µM | IC50 [2, 6]: 1 to 30 µM

CC(C)(O)[C@H](O)c1cc2nc(N3CCN(Cc4ccc(F)cc4F)CC3)c(-c3cnn(C4CC4)c3)nc2cn1 (single isomer, unassigned) [Compound 576]
IC50 [1, 5]: 0.1 to 1 µM | IC50 [2, 6]: 1 to 30 µM

CC(=O)N1CCc2nc(N3CCCC(Oc4ccccc4F)C3)c(-c3cnn(C)c3)nc2C1 (centres unmarked) [Compound 336, 1-{2-[3-(2-fluorophenoxy)piperidin-1-yl]-3-(1-methyl-1H-pyrazol-4-yl)-5H,6H,7H,8H-pyrido[3,4-b]pyrazin-6-yl}ethan-1-one]
IC50 ([1]; procedure of Example 24): ≥ 30 µM | IC50 ([2]; procedure of Example 24): 0.1 to 1 µM

CC(C)(C)OC(=O)N1CCCC1C(=O)N1CCc2nc(N3CCC(Oc4ccc(F)cc4F)CC3)c(-c3cnn(C4CCCCO4)c3)nc2C1 (centres unmarked) [Compound 186, tert-butyl 2-{2-[4-(2,4-difluorophenoxy)piperidin-1-yl]-3-[1-(oxan-2-yl)-1H-pyrazol-4-yl]-5H,6H,7H,8H-pyrido[3,4-b]pyrazine-6-carbonyl}pyrrolidine-1-carboxylate]
IC50 [1, 3]: 1 to 30 µM | IC50 [2, 4]: 1 to 30 µM

CC(C)(O)C(O)c1cc2nc(-c3cnn(C4CC4)c3)c(N3CCC(Oc4ccc(F)cc4F)CC3)nc2cn1 (single isomer, unassigned) [Compound 590]
IC50 [1, 5]: < 0.1 µM | IC50 [2, 6]: 0.1 to 1 µM

CC(C)(O)C(O)c1cc2nc(-c3cnn(C4CC4)c3)c(N3CCN(Cc4ccc(F)cc4F)CC3)nc2cn1 (single isomer, unassigned) [Compound 601]
IC50 [1, 5]: 0.1 to 1 µM | IC50 [2, 6]: 1 to 30 µM

CC(=O)N1CCc2nc(N3CC[C@H](Oc4ccc(F)cc4F)[C@@H](F)C3)c(-c3cnn(C)c3)nc2C1 (single isomer, unassigned) [Compound 331]
IC50 ([1]; procedure of Example 24): 1 to 30 µM | IC50 ([2]; procedure of Example 24): 1 to 30 µM

COc1ccc(OC2CCN(c3nc4cnncc4nc3-c3cnn(C)c3)CC2)c(F)c1 [Compound 417, 4-(2-fluoro-4-methoxyphenoxy)-1-[3-(1-methyl-1H-pyrazol-4-yl)pyrazino[2,3-d]pyridazin-2-yl]piperidine]
IC50 [1, 3]: 0.1 to 1 µM | IC50 [2, 4]: 1 to 30 µM

CCn1cc(-c2nc3c(nc2N2CCC(Oc4cc(Cl)ccc4Cl)CC2)CCN(C[C@@H](O)CO)C3)cn1 (single isomer, unassigned) [Compound 408]
IC50 [1, 3]: 0.1 to 1 µM | IC50 [2, 4]: 1 to 30 µM

C=CC(=O)N1CCc2nc(N3CCC(Oc4ccc(F)cc4F)CC3)c(-c3ccc(F)c(N)n3)nc2C1 [Compound 626, 1-{3-(6-amino-5-fluoro-2-pyridyl)-2-[4-(2,4-difluorophenoxy)-1-piperidyl]-5,6,7,8-tetrahydro-1,4,6-triaza-6-naphthyl}-2-propen-1-one]
IC50 ([1]; procedure of Example 24): < 0.1 µM | IC50 ([2]; procedure of Example 24): 1 to 30 µM

CC(=O)N1CCc2nc(N3CCN(Cc4cnn(C)c4)CC3)c(-c3cnn(C)c3)nc2C1 [Compound 526, 1-[3-(1-methyl-4-pyrazolyl)-2-{4-[(1-methyl-4-pyrazolyl)methyl]-1-piperazinyl}-5,6,7,8-tetrahydro-1,4,6-triaza-6-naphthyl]-1-ethanone]
IC50 [1, 5]: ≥ 30 µM | IC50 [2, 6]: 0.1 to 1 µM

COCC(O)c1cc2nc(-c3cnn(C)c3)c(N3CCC(Oc4ccc(F)cc4F)CC3)nc2cn1 (centres unmarked) [Compound 644, 1-{3-[4-(2,4-difluorophenoxy)-1-piperidyl]-2-(1-methyl-4-pyrazolyl)-1,4,6-triaza-7-naphthyl}-2-methoxy-1-ethanol]
IC50 ([1]; procedure of Example 24): < 0.1 µM | IC50 ([2]; procedure of Example 24): 0.1 to 1 µM

CC(=O)N1CCc2nc(N3CC=CC3)c(-c3cnn(C)c3)nc2C1 [Compound 451, 1-[2-(2,5-dihydro-1H-pyrrol-1-yl)-3-(1-methyl-1H-pyrazol-4-yl)-5H,6H,7H,8H-pyrido[3,4-b]pyrazin-6-yl]ethan-1-one]
IC50 [1, 3]: ≥ 30 µM | IC50 [2, 4]: 1 to 30 µM

Nc1cc2nc(N3CCC(Oc4ccc(F)cc4F)CC3)c(-c3cnn(C(F)F)c3)nc2cn1 [Compound 460, 3-[1-(difluoromethyl)-1H-pyrazol-4-yl]-2-[4-(2,4-difluorophenoxy)piperidin-1-yl]pyrido[3,4-b]pyrazin-7-amine]
IC50 [1, 3]: 0.1 to 1 µM | IC50 [2, 4]: 1 to 30 µM

CCOc1ccc(OC2CCN(c3nc4c(nc3-c3cnn(C)c3)CN(C(C)=O)CC4)CC2)c(F)c1 [Compound 504, 1-{2-[4-(4-ethoxy-2-fluorophenoxy)-1-piperidyl]-3-(1-methyl-4-pyrazolyl)-5,6,7,8-tetrahydro-1,4,6-triaza-6-naphthyl}-1-ethanone]
IC50 [1, 5]: 0.1 to 1 µM | IC50 [2, 6]: 1 to 30 µM

Cn1cc(-c2nc3cnc(CC(C)(C)O)cc3nc2N2CCC(Oc3ccc(F)cc3F)CC2)cn1 [Compound 461, 1-(2-(4-(2,4-difluorophenoxy)piperidin-1-yl)-3-(1-methyl-1H-pyrazol-4-yl)pyrido[3,4-b]pyrazin-7-yl)-2-methylpropan-2-ol]
IC50 [1, 3]: 0.1 to 1 µM | IC50 [2, 4]: 1 to 30 µM

CC(C)(O)[C@H](O)c1cc2nc(N3CCC(Oc4ccc(F)cc4F)CC3)c(-c3cnn(C4CC4)c3)nc2cn1 (single isomer, unassigned) [Compound 572]
IC50 [1, 5]: 0.1 to 1 µM | IC50 [2, 6]: 1 to 30 µM

Fc1ccc(OC2CCN(c3nc4ccncc4nc3-c3ccn[nH]3)CC2)c(F)c1 [Compound 85, 4-(2,4-difluorophenoxy)-1-[3-(1H-pyrazol-5-yl)pyrido[3,4-b]pyrazin-2-yl]piperidine]
IC50 [1, 3]: 1 to 30 µM | IC50 [2, 4]: 1 to 30 µM

CC(=O)N1CCc2nc(N3CCN(Cc4cn[nH]c4)CC3)c(-c3cnn(C)c3)nc2C1 [Compound 536, 1-[3-(1-methyl-4-pyrazolyl)-2-{4-[(4-pyrazolyl)methyl]-1-piperazinyl}-5,6,7,8-tetrahydro-1,4,6-triaza-6-naphthyl]-1-ethanone]
IC50 [1, 5]: ≥ 30 µM | IC50 [2, 6]: ≥ 30 µM

COC1C=C(c2nc3c(nc2N2CCC(Oc4ccc(F)cc4F)CC2)CCN(C(C)=O)C3)CCC1 (centres unmarked) [Compound 247, 1-{2-[4-(2,4-difluorophenoxy)piperidin-1-yl]-3-(3-methoxycyclohex-1-en-1-yl)-5H,6H,7H,8H-pyrido[3,4-b]pyrazin-6-yl}ethan-1-one]
IC50 [1, 3]: 0.1 to 1 µM | IC50 [2, 4]: 1 to 30 µM

CC(=O)N1CCc2nc(N3CCC(Oc4ccc(F)cc4F)CC3)c(-c3cnc4n3CCNC4)nc2C1 [Compound 24, 1-(2-(4-(2,4-difluorophenoxy)piperidin-1-yl)-3-(5,6,7,8-tetrahydroimidazo[1,2-a]pyrazin-3-yl)-7,8-dihydropyrido[3,4-b]pyrazin-6(5H)-yl)ethan-1-one]
IC50 [1, 7]: 1 to 30 µM | IC50 [2, 7]: 0.1 to 1 µM

COCC1(Oc2ccc(F)cc2F)CCN(c2nc3ccncc3nc2-c2cn[nH]c2)CC1 [Compound 63, 2-(4-(2,4-difluorophenoxy)-4-(methoxymethyl)piperidin-1-yl)-3-(1H-pyrazol-4-yl)pyrido[3,4-b]pyrazine]
IC50 [1, 3]: 1 to 30 µM | IC50 [2, 4]: 0.1 to 1 µM
